Measurements: article PMC4836297, “Leveraging family-specific signatures for AMP discovery and high-throughput annotation” (Scientific Reports, 2016)
Where two headings read alike, the source gives them in different places. Marks after values point to notes of the source that are not given here. Residues, ends and D or L forms follow the SMILES beside them.

How the values were obtained:
E. coli 8739 (NCIM 2065) = type: cell-based, Escherichia coli; details: for inhibition at 100 microM: 8739 (NCIM 2065, 18 h, 100 microM); for MIC (*50% inhibition): starred value: 50% inhibition only
Experimental: (§1) Antimicrobial activity of the synthesized peptides was determined by broth microdilution assay and evaluated based on minimum inhibitory concentration (MIC). […] Gram negative microorganisms (Escherichia coli ATCC 8739, Escherichia coli ATCC 25922) were grown in Mueller-Hinton (MH) broth at 37 °C for 18h on a shaker to obtain an OD600nm of 0.8. Bacterial cultures were diluted in MH broth to obtain a cell density of 10^5–10^6 c.f.u/ml. Different concentrations of peptides, ranging from 1–100 μM were serially diluted in MH broth and inoculated with bacterial cultures in 1:1 ratio in sterile 96-well microtiter plates. The plates were incubated at 37 °C for 18h and antimicrobial activity was evaluated as MIC of the peptides by determining the absorbance at 600nm. The microorganisms were obtained from National Collection of Industrial Microorganisms (NCIM), Pune.

[1] = system: E. coli 25922 (NCIM 2931); type: cell-based, Escherichia coli; details: for MIC (*50% inhibition): starred value: 50% inhibition only
Experimental: as §1

[2] = Escherichia coli ATCC 8739, MH broth, 37 °C 18h, absorbance at 600nm, average range, triplicates of three independent experiments
[3] = Escherichia coli ATCC 25922, MH broth, 37 °C 18h, absorbance at 600nm, average range, triplicates of three independent experiments
[4] = Escherichia coli ATCC 8739, complete growth inhibition, MH broth, 10^5–10^6 c.f.u/ml, peptides 1–100 μM, 37 °C 18h, absorbance at 600nm, average range, triplicates of three independent experiments
[5] = Escherichia coli ATCC 25922, complete growth inhibition, MH broth, 10^5–10^6 c.f.u/ml, peptides 1–100 μM, 37 °C 18h, absorbance at 600nm, average range, triplicates of three independent experiments

Molecule: CSCC[C@H](NC(=O)[C@H](CCCNC(=N)N)NC(=O)[C@H](CCC(N)=O)NC(=O)[C@H](Cc1c[nH]c2ccccc12)NC(=O)[C@H](CO)NC(=O)[C@H](CCC(N)=O)NC(=O)[C@H](CCCCN)NC(C)=O)C(=O)N[C@@H](CCCNC(=N)N)C(=O)N[C@@H](CCCCN)C(=O)N[C@@H](CC(C)C)C(=O)N[C@@H](C)C(=O)N[C@@H](CC(C)C)C(=O)N[C@@H](CCCCN)C(=O)N[C@@H](CCCNC(=N)N)C(N)=O [LactP1] (Ac-KQSWQRMRKLALKR-NH2)
- inhibition at 100 microM (E. coli 8739 (NCIM 2065)): 50%
- MIC (*50% inhibition) (E. coli 8739 (NCIM 2065); [2]): 50–100* microM
- inhibition at 100 microM ([1]; 25922 (NCIM 2931, 18 h, 100 microM)): 50%
- MIC (*50% inhibition) [1, 3]: 50–100* microM

Molecule: CC[C@H](C)[C@H](NC(=O)CNC(=O)[C@H](CC(=O)O)NC(=O)[C@H](CCCNC(=N)N)NC(=O)[C@@H](NC(=O)[C@H](CC(N)=O)NC(=O)[C@H](CCCNC(=N)N)NC(=O)CNC(=O)[C@@H](NC(=O)[C@H](CCCCN)NC(=O)[C@H](CCC(=O)O)NC(=O)[C@@H](NC(=O)[C@H](CCCCN)NC(=O)[C@H](CCCCN)NC(=O)[C@H](Cc1ccccc1)NC(=O)[C@@H](NC(=O)[C@H](CCCCN)NC(C)=O)[C@@H](C)CC)[C@@H](C)CC)C(C)C)C(C)C)C(=O)N[C@H](C(=O)N[C@@H](CCCCN)C(=O)N[C@@H](C)C(=O)NCC(=O)N1CCC[C@H]1C(=O)N[C@@H](C)C(=O)N[C@H](C(=O)N[C@@H](C)C(=O)N[C@H](C(=O)N[C@H](C(=O)N[C@@H](CCC(=O)O)C(=O)N[C@@H](CCC(N)=O)C(=O)N[C@@H](C)C(N)=O)C(C)C)C(C)C)C(C)C)[C@@H](C)CC [CecH] (Ac-KIFKKIEKVGRNVRDGIIKAGPAVAVVEQA-NH2)
- MIC (E. coli 8739 (NCIM 2065); 8739 (NCIM 2065, 18 h)): 3.125 to 6.25 µM
- antimicrobial activity (in words) (E. coli 8739 (NCIM 2065); Escherichia coli ATCC 8739): activity similar to that of gentamycin
- MIC ([1]; 25922 (NCIM 2931, 18 h)): 6.25 to 12.5 µM
- antimicrobial activity (in words) ([1]; Escherichia coli ATCC 25922): activity similar to that of gentamycin

Molecule: Gentamycin [reference compound]
- MIC (E. coli 8739 (NCIM 2065); [4]): 1.56 to 3.125 µM
- MIC [1, 5]: 1.56 to 3.125 µM

Molecule: WQRMRKL [LactP, N-acetylated, C-amidated]
- antimicrobial activity (in words) (E. coli 8739 (NCIM 2065); Escherichia coli ATCC 8739): lacks activity
- MIC (E. coli 8739 (NCIM 2065); [4]): NA (Did not show activity upto 100 microM)
- antimicrobial activity (in words) ([1]; Escherichia coli ATCC 25922): lacks activity
- MIC [1, 5]: NA (Did not show activity upto 100 microM)

Molecule: CSCC[C@H](NC(=O)[C@H](CCCNC(=N)N)NC(=O)[C@H](CCC(N)=O)NC(=O)[C@H](Cc1c[nH]c2ccccc12)NC(=O)[C@H](CO)NC(=O)[C@H](CCC(N)=O)NC(=O)[C@H](CCCCN)NC(=O)[C@H](CC(C)C)NC(=O)[C@H](CCC(=O)O)NC(=O)[C@H](CCC(=O)O)NC(=O)[C@H](CCCNC(=N)N)NC(=O)[C@H](CCCNC(=N)N)NC(=O)[C@H](CCCNC(=N)N)NC(=O)[C@H](CCCNC(=N)N)NC(C)=O)C(=O)N[C@@H](CCCNC(=N)N)C(=O)N[C@@H](CCCCN)C(=O)N[C@@H](CC(C)C)C(=O)N[C@@H](C)C(=O)N[C@@H](CC(C)C)C(=O)N[C@@H](CCCCN)C(=O)N[C@@H](CCCNC(=N)N)C(N)=O [LactP2] (Ac-RRRREELKQSWQRMRKLALKR-NH2)
- MIC (E. coli 8739 (NCIM 2065); 8739 (NCIM 2065, 18 h)): 50 to 100 µM
- inhibition at 100 microM (E. coli 8739 (NCIM 2065)): 100%
- MIC (*50% inhibition) [1, 3]: 50–100* microM

Molecule: PLSCRRKIGICVLIRCSGNMRQIGTCLGALVKCCR [DefH, 35-residue defensin family peptide retrieved using HMMs, Class II; N-acetylated, C-amidated]
- MIC (*50% inhibition) (E. coli 8739 (NCIM 2065); [2]): 50–100* microM
- MIC [1, 5]: NA (Did not show activity upto 100 microM)
